The NIST ThermoML archive (doi:10.1016/j.fluid.2010.10.028)

Test: xn = mol fraction of the nth substance listed
Settings: Liquid, Vibrating tube method

CC(C)=O [acetone] + CCCCCCC
Settings | mass density [kg/m3]
387.33 K, 39820 kPa, x1 = 0.7024 | 691.19
387.33 K, 44790 kPa, x1 = 0.7024 | 696.6
387.33 K, 44850 kPa, x1 = 0.801 | 707.68
387.33 K, 44910 kPa, x1 = 0.4 | 722
387.33 K, 44910 kPa, x1 = 0.8992 | 722
387.33 K, 49890 kPa, x1 = 0.7024 | 701.8
387.33 K, 54870 kPa, x1 = 0.4 | 732.14
387.33 K, 54870 kPa, x1 = 0.8992 | 732.14
387.33 K, 59840 kPa, x1 = 0.492 | 692.57
387.33 K, 59880 kPa, x1 = 0.7024 | 711.17
387.33 K, 69820 kPa, x1 = 0.801 | 731
387.33 K, 69830 kPa, x1 = 0.4 | 745.58
387.33 K, 69830 kPa, x1 = 0.8992 | 745.58
387.33 K, 79900 kPa, x1 = 0.801 | 739.02
387.33 K, 84880 kPa, x1 = 0.801 | 742.74
387.33 K, 89860 kPa, x1 = 0.801 | 746.32
387.33 K, 99770 kPa, x1 = 0.7024 | 741.29
387.33 K, 99830 kPa, x1 = 0.801 | 753.17
387.33 K, 114840 kPa, x1 = 0.801 | 762.65
387.33 K, 124840 kPa, x1 = 0.801 | 768.53
387.33 K, 129850 kPa, x1 = 0.801 | 771.37
387.34 K, 1350 kPa, x1 = 0.492 | 613.12
387.34 K, 14820 kPa, x1 = 0.7024 | 656.98
387.34 K, 19850 kPa, x1 = 0.492 | 648.12
387.34 K, 24830 kPa, x1 = 0.7024 | 672.45
387.34 K, 24840 kPa, x1 = 0.492 | 655.23
387.34 K, 29850 kPa, x1 = 0.492 | 661.75
387.34 K, 34810 kPa, x1 = 0.7024 | 685.41
387.34 K, 34840 kPa, x1 = 0.492 | 667.74
387.34 K, 39870 kPa, x1 = 0.492 | 673.37
387.34 K, 44860 kPa, x1 = 0.492 | 678.6
387.34 K, 49850 kPa, x1 = 0.492 | 683.53
387.34 K, 54850 kPa, x1 = 0.492 | 688.17
387.34 K, 54880 kPa, x1 = 0.7024 | 706.61
387.34 K, 64820 kPa, x1 = 0.492 | 696.75
387.34 K, 64880 kPa, x1 = 0.7024 | 715.51
387.34 K, 69860 kPa, x1 = 0.7024 | 719.63
387.34 K, 69930 kPa, x1 = 0.492 | 700.84
387.34 K, 74840 kPa, x1 = 0.7024 | 723.6
387.34 K, 74900 kPa, x1 = 0.492 | 704.65
387.34 K, 79840 kPa, x1 = 0.7024 | 727.41
387.34 K, 79890 kPa, x1 = 0.492 | 708.31
387.34 K, 84810 kPa, x1 = 0.7024 | 731.07
387.34 K, 84890 kPa, x1 = 0.492 | 711.86
387.34 K, 89810 kPa, x1 = 0.7024 | 734.6
387.34 K, 89860 kPa, x1 = 0.492 | 715.24
387.34 K, 94770 kPa, x1 = 0.7024 | 737.98
387.34 K, 94840 kPa, x1 = 0.492 | 718.51
387.34 K, 99820 kPa, x1 = 0.492 | 721.68
387.34 K, 104740 kPa, x1 = 0.7024 | 744.46
387.34 K, 104800 kPa, x1 = 0.492 | 724.73
387.34 K, 109720 kPa, x1 = 0.7024 | 747.55
387.34 K, 109770 kPa, x1 = 0.492 | 727.68
387.34 K, 114800 kPa, x1 = 0.7024 | 750.59
387.34 K, 114840 kPa, x1 = 0.492 | 730.61
387.34 K, 119810 kPa, x1 = 0.7024 | 753.51
387.34 K, 119850 kPa, x1 = 0.492 | 733.41
387.34 K, 124820 kPa, x1 = 0.7024 | 756.37
387.34 K, 124850 kPa, x1 = 0.492 | 736.14
387.34 K, 129810 kPa, x1 = 0.7024 | 759.13
387.34 K, 129840 kPa, x1 = 0.492 | 738.77
397.26 K, 1500 kPa, x1 = 0.801 | 626.11
397.26 K, 1680 kPa, x1 = 0.4 | 640.61
397.26 K, 1680 kPa, x1 = 0.8992 | 640.61
397.26 K, 5010 kPa, x1 = 0.4 | 649.41
397.26 K, 5010 kPa, x1 = 0.8992 | 649.41
397.26 K, 14870 kPa, x1 = 0.611 | 638.19
397.26 K, 14980 kPa, x1 = 0.4 | 670.71
397.26 K, 14980 kPa, x1 = 0.8992 | 670.71
397.26 K, 19970 kPa, x1 = 0.4 | 679.48
397.26 K, 19970 kPa, x1 = 0.8992 | 679.48
397.26 K, 29940 kPa, x1 = 0.4 | 694.66
397.26 K, 29940 kPa, x1 = 0.8992 | 694.66
397.26 K, 44910 kPa, x1 = 0.4 | 713.39
397.26 K, 44910 kPa, x1 = 0.8992 | 713.39
397.26 K, 49900 kPa, x1 = 0.4 | 718.87
397.26 K, 49900 kPa, x1 = 0.8992 | 718.87
397.26 K, 54890 kPa, x1 = 0.4 | 724.02
397.26 K, 54890 kPa, x1 = 0.8992 | 724.02
397.26 K, 59880 kPa, x1 = 0.4 | 728.9
397.26 K, 59880 kPa, x1 = 0.8992 | 728.9
397.26 K, 64940 kPa, x1 = 0.611 | 699.14
397.26 K, 69840 kPa, x1 = 0.4 | 738.01
397.26 K, 69840 kPa, x1 = 0.8992 | 738.01
397.26 K, 74820 kPa, x1 = 0.4 | 742.26
397.26 K, 74820 kPa, x1 = 0.8992 | 742.26
397.26 K, 84790 kPa, x1 = 0.4 | 750.27
397.26 K, 84790 kPa, x1 = 0.8992 | 750.27
397.26 K, 89770 kPa, x1 = 0.4 | 754.07
397.26 K, 89770 kPa, x1 = 0.8992 | 754.07
397.26 K, 104690 kPa, x1 = 0.4 | 764.67
